# Laboratory results from publication PMC4664966, “Discovery and characterization of novel inhibitors of the sodium-coupled citrate transporter (NaCT or SLC13A5)” (Scientific Reports, 2015).
# Columns and labels:
# [1] = target: Lymphocyte-specific protein tyrosine kinase (LCK) (Homo sapiens, UniProt P06239); test: Selectivity data (Table S1); format: biochemical
# pKa = format: physicochemical
# CYP1A2 = CYP1A2 (Homo sapiens, UniProt P05177); test: Selectivity data (Table S1); format: in vitro ADME; conditions: 3 µM
# CYP1A2, sequence (P05177 whole entry): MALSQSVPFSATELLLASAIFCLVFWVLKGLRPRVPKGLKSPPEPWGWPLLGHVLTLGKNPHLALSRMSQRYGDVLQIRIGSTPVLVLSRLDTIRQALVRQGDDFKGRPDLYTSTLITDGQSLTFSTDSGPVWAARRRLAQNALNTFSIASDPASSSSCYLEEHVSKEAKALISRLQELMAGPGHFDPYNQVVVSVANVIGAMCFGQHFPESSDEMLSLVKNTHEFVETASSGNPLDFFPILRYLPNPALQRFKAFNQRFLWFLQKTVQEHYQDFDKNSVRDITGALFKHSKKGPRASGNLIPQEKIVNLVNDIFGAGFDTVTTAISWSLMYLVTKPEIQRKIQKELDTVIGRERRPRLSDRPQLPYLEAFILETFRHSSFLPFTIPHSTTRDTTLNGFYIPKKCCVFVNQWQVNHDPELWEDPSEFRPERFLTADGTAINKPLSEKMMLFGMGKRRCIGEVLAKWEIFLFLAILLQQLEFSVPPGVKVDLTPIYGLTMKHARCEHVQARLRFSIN
# [2] = target: Acetylcholinesterase (ACHE) (Homo sapiens, UniProt P22303); test: Selectivity data (Table S1); format: biochemical
# Acetylcholinesterase (ACHE), sequence (P22303 32-614): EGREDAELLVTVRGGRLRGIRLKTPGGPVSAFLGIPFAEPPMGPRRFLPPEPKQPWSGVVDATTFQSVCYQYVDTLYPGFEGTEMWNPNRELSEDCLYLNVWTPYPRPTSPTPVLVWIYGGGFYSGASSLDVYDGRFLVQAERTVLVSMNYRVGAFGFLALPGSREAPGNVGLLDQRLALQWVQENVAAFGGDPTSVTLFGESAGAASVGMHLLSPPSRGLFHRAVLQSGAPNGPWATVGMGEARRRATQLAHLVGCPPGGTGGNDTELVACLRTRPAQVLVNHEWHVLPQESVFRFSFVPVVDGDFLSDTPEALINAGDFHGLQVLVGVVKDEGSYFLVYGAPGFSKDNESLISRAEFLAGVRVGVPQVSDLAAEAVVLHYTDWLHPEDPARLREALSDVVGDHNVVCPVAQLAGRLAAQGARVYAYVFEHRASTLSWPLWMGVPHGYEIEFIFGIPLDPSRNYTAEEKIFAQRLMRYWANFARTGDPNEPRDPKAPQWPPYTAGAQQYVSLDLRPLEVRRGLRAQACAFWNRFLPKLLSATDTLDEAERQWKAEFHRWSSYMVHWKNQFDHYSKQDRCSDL
# [3] = target: Histamine receptor 2 (H2) (Homo sapiens, UniProt P25021); test: Selectivity data (Table S1); format: binding
# Histamine receptor 2 (H2), sequence (P25021 whole entry): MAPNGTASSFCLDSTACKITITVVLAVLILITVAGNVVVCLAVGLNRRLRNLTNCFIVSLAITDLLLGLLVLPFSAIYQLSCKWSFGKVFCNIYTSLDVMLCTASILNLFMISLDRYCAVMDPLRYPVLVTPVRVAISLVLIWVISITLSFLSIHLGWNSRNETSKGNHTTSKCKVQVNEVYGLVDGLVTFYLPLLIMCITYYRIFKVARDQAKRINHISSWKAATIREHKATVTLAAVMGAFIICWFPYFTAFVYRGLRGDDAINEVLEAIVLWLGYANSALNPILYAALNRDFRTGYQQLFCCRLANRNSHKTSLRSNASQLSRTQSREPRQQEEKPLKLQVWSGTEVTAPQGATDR
# HEKNaCT cells = test: OCR and ECAR measurements in HEKNaCT cells incubated with citrate (Seahorse); format: cell-based, human; conditions: 30 μM compound
# Method: HEKNaCT cells were plated at 12,000 cells/well onto a poly-d-lysine coated XF96 plate (Sigma, Seahorse Biosciences). Cells were plated in culture media containing HG DMEM, 10% FBS, 2 mM glutamine, 1 mM pyruvate, 0.5 mg/mL Geneticin, and 1% penicillin/streptomycin (Life Technologies) and incubated overnight at 37 °C. The following day, the media was changed to Seahorse Biosciences assay medium (Seahorse Biosciences) supplemented with 10 mM glucose and 2 mM pyruvate (Sigma). The plate was pre-incubated for 1 hour in a 37 °C air incubator. […]
# CYP3A4 = CYP3A4 (Homo sapiens, UniProt P08684); test: Selectivity data (Table S1); format: in vitro ADME; conditions: 3 µM
# CYP3A4, sequence (P08684 whole entry): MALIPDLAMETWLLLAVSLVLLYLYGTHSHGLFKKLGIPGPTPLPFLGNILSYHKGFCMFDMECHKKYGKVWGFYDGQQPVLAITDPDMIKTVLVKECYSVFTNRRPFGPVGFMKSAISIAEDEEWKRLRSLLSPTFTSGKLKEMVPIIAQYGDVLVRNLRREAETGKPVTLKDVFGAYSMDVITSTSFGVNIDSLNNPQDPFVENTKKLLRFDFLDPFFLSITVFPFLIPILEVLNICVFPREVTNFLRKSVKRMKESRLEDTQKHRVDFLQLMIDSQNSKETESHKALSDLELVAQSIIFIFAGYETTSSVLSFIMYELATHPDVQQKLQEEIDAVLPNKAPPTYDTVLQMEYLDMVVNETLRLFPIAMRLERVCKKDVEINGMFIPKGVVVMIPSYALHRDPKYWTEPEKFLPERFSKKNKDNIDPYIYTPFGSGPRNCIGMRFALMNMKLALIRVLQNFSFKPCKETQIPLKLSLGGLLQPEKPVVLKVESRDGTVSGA
# [4] = target: Cytochrome P450 3A4 (CYP3A4) (Homo sapiens, UniProt P08684); test: Selectivity data (Table S1); format: in vitro ADME
# Cytochrome P450 3A4 (CYP3A4), sequence (P08684 whole entry): as above
# NaDC3 (SLC13A3) = target: T1, NaDC3 (SLC13A3) (Homo sapiens, UniProt Q8WWT9); test: Inhibition of citrate or succinate uptake in HEKNaDC3 cells; format: cell-based
# T1 construct: host or cells: HEK-293, transient (Fugene HD)
# T1 sequence (Q8WWT9 1-602): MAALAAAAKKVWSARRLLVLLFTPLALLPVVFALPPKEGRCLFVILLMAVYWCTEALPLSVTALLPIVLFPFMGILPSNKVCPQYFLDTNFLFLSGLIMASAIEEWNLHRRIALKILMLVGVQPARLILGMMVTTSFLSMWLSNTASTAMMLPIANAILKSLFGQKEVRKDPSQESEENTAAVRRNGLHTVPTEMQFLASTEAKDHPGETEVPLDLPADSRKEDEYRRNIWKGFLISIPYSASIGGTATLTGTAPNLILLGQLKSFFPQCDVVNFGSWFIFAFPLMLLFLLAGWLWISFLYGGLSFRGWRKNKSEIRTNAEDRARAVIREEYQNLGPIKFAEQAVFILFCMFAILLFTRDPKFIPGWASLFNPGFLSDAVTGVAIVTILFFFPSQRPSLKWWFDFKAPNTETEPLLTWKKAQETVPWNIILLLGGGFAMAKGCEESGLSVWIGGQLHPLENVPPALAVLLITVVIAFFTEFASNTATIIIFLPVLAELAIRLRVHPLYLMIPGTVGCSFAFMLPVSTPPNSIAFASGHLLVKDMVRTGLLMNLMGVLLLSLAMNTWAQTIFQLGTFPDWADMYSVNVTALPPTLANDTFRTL
# Text: Protocols to generate the stable cell line overexpressing NaCT or cell transfection with SLC13A2 or SLC13A3 can be found in the supporting information. HEK-293 cells stably transfected with the human sodium Citrate transporter SLC13A5 or transiently transfected with the human SLC13A2 or SLC13A3 transporter were removed from the flasks with dissociation buffer and re-suspended in an equal volume of growth media (DMEM, High Glucose supplemented with 10% heat inactivated fetal bovine serum and 500 μg/ml Geneticin). For the transient transfections, Geneticin was eliminated from the media. Cell suspensions were centrifuged at 1,000 rpm for approximately 5 minutes. Resulting cell pellets were re-suspended in growth media and placed in a 37 °C water bath for approximately 10 minutes prior to a final spin at 1,000 rpm. Following this spin the resulting cell pellets were re-suspended in assay buffer, 142 mM NaCl (or 142 mM choline chloride), 5 mM KCl, 1.2 mM MgSO4, 1.5 mM CaCl, 5 mM glucose and 25 mM HEPES pH 7.4. Cell suspensions were counted and the concentration adjusted as needed with assay buffer to 2e[6] viable cells /mL. 20 μL of cell suspension were added to 384-well cyotstar-T plates followed by the addition of 5 μL of 10× concentration of compound. Cells and compound were incubated at 37 °C for approximately 30 minutes prior to the addition of 25 μL of 300 μM citric acid (16 μM radiolabeled [^14C]-citric acid and 284 μM cold citric acid) to make a 150 μM final concentration of citric acid or 21 μM [^14C]-succinic acid. After substrate addition, the uptake of radioactivity was monitored on Perkin Elmer Microbeta plate reader. Data from reads between 45–90 minutes was used to assess the ability of test compounds to inhibit the uptake of citric or succinic acid. […]
# were plated, and incubated for 48 hours. Following the incubation, NaDC1 and NaDC3 assays were executed identical to the procedure for NaCT. […]
# The solution was heated to reflux until the total volume was reduced to ~25 mL. […]
# Lymphocyte-specific protein tyrosine kinase (LCK), sequence (P06239 whole entry): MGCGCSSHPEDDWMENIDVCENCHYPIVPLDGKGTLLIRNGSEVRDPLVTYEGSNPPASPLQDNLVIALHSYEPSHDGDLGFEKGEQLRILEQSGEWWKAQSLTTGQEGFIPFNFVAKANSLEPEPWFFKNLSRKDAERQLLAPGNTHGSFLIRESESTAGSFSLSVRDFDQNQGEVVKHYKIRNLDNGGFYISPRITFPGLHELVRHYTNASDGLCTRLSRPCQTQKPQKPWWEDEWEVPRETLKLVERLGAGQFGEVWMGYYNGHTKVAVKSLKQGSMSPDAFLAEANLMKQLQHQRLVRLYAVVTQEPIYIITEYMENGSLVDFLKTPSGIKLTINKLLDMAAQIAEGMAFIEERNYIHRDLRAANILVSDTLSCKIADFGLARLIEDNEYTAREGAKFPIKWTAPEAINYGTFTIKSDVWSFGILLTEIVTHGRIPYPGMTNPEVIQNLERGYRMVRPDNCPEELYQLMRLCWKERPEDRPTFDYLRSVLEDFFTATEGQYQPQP
smiles,measurement,setting,value
CC(C)(C)c1ccc(CC[C@@](O)(CC(=O)O)C(=O)O)cc1 [Compound 2],inhibition at 100 µM,[1],< 10%
same,pKa,pKa,3.1
same,inhibition at 3 µM,CYP1A2,< 10%
same,inhibition at 100 µM,[2],< 10%
same,inhibition at 100 µM,[3],< 10%
same,effect on citrate induced increase in oxygen consumption rate (OCR),HEKNaCT cells,prevented citrate induced increase in mitochondrial respiration
same,effect on citrate suppressed extracellular acidification rate (ECAR),HEKNaCT cells; citrate,restored
same,inhibition at 3 µM,CYP3A4,12%
same,interaction/inhibition of CYP3A4,[4],no significant interaction/inhibition
same,"inhibition of citrate or succinate uptake, NaDC3",NaDC3 (SLC13A3); HEK-293-derived system overexpressing NaDC3,No measurable inhibition
same,IC50,NaDC3 (SLC13A3); compound 4: mean of 2 replicates,> 100 µM
